A word on the IC50: it is the concentration needed to halve the response being measured. A lower IC50 goes with inhibition by little substance.

SMILES strings stand for the structures.

Among the data in PMC11099041, “Tissue distribution and retention drives efficacy of rapidly clearing VHL-based PROTACs” (Communications Medicine, 2024) are IC50 values, retold here.

In one series the target is T1, CYP2C8 (Homo sapiens, UniProt P10632).
T1 construct: phosphate buffer (100 mM, pH 7.4) containing human liver microsomes (HLM); from tissue; host or cells: human liver microsomes
T1 sequence (P10632 1-490): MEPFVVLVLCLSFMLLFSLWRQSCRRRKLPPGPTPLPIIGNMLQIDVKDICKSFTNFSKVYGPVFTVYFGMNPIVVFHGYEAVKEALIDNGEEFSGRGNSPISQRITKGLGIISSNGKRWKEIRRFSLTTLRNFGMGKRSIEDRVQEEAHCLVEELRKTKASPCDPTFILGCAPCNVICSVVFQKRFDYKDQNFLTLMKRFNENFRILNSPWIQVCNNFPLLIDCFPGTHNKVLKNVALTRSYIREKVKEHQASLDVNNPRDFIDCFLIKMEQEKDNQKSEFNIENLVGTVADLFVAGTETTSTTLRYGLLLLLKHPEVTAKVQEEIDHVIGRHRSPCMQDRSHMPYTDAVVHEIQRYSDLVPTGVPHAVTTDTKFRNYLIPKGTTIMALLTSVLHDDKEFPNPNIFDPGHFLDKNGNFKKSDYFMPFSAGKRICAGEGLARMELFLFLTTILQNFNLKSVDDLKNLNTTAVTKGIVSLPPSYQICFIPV
Nature of the series: Reversible P450 inhibition in HLM. Type of series: biochemical. Particulars: human liver microsomes, pH 7.4, probe paclitaxel, substrate Paclitaxel. The protocol: (§1) The reversible P450 inhibition assay was conducted in triplicate on a BioCel 1200 System, V11 (Agilent, CA), as previously described by Kosaka, et al.[28] […] Individual P450 specific substrates included midazolam for CYP3A4/5, dextromethorphan for CYP2D6, S-(+)-mephenytoin for CYP2C19, S-(-)-warfarin for CYP2C9, paclitaxel for CYP2C8, and tacrine for CYP1A2. P450 activity was expressed as the peak area ratio of a P450-specific metabolite formed relative to its internal standard, and inhibition percentage was calculated from P450 activity of samples relative to the solvent control. Inhibition data were processed using Prism (GraphPad Software, San Diego, CA) to calculate IC50 values for each P450 enzyme.
Background: Liver microsomes are a subcellular fraction often used to study metabolism.

Another series concerns the target T2, CYP2C9 (Homo sapiens, UniProt P11712).
T2 construct: phosphate buffer (100 mM, pH 7.4) containing human liver microsomes (HLM); from tissue; host or cells: human liver microsomes
Description: Reversible P450 inhibition in HLM. Type of series: biochemical. Particulars: human liver microsomes, pH 7.4, probe S-(-)-warfarin. The protocol: as §1

T2 sequence (P11712 whole entry): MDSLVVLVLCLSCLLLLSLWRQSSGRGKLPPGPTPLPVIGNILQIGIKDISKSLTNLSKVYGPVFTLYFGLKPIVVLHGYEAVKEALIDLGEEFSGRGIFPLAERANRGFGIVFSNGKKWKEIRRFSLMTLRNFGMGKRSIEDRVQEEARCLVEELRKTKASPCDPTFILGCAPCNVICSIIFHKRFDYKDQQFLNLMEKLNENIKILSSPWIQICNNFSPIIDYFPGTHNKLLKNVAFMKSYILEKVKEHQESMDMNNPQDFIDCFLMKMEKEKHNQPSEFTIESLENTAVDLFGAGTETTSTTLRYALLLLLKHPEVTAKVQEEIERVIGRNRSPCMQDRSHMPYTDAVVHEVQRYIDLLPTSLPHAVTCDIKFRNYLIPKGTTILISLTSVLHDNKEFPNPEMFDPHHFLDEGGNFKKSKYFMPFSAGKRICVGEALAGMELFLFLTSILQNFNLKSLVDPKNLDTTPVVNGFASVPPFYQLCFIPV

Take `Cc1ncsc1-c1ccc(C(C)NC(=O)C2CC(O)CN2C(=O)C(c2cc(N3CCC(CN4CCC(OC5CC(Oc6cc(N7C8CCC7CN(c7cc(-c9ccccc9O)nnc7N)C8)ccn6)C5)CC4)CC3)no2)C(C)C)cc1` (centres unmarked) [A947]: the IC50 at CYP2C8 and on CYP2C9 was greater than 10 µM each time.
